Source: US8309580B2, “Heterocyclic compound” (Takeda Pharmaceutical Company Limited, priority 2007, dated 2012)

Legend:
[1] = biological target: human-type glucagon receptor (Homo sapiens, UniProt P47871); assay: Glucagon binding inhibitory activity ([125I]-glucagon binding to glucagon receptor membrane protein); details: glucagon receptor membrane protein from FreeStyle CHO cells, 90 min at room temperature
Procedure: The glucagon binding inhibitory action of the compound of the present invention was evaluated by the following method.
(1) Preparation of Glucagon Receptor Membrane Protein
A human-type glucagon receptor was expressed using FreeStyle CHO Expression System (Invitrogen). A transient expression in FreeStyle CHO cell was performed using a human-type glucagon expression plasmid DNA and according to the manual attached to the FreeStyle CHO Expression System. The above-mentioned DNA was transfected and the cultured with shaking for 2 days (37° C., 8% CO2, 125 rpm). 2400 ml of culture medium was centrifuged at 2,000 rpm for 10 min and the cells were collected. The collected cells were washed with PBS, suspended in homogenate buffer [10 mM NaHCO3 (pH 7.4), 1 mM EDTA, Complete EDTA-free (Roche, 1 tablet/50 mL)] and disrupted by polytron cell disrupter (Kinematica AG). Disruption solution was centrifuged at 2,000 rpm for 10 min and the supernatant was collected. The supernatant was centrifuged at 35,000 rpm for 60 min and the precipitate was suspended in a buffer [20 mM Tris-HCl (pH 7.4), 5 mM EDTA, Complete EDTA-free (Roche, 1 tablet/50 mL)] to give a glucagon receptor membrane protein (452 mg).
(2) Measurement of Glucagon Binding Inhibitory Activity
To each well of 96 well plate (Corning Incorporated) were added 25 μl of test compound (containing 0.4% DMSO), 50 μl of glucagon receptor membrane protein diluted with reaction buffer [50 mM Tris-HCl (pH 7.4), 5 mM EGTA, 5 mM magnesium chloride, 0.1% BSA, 0.005% Tween20] to 100 μg/ml, and 25 μl of radioactive labeled glucagon ([^125I]-Receptor Grade Glucagon; Perkin Elmer Inc.) diluted with the reaction buffer to 200 pM, whereby the reaction was started. The plate was stood for 90 min at room temperature. The reaction solution was transferred from the reaction plate to a 96 well unifilter GF/C plate (Perkin Elmer Inc.) using a cell harvester (Perkin Elmer Inc.) and the membrane fraction was collected on the filter by suction. The filter was presoaked in 2 mg/ml of polyethyleneimine to prevent non-specific adsorption of labeled ligand. The filter was washed 4 times with a reaction buffer and dried for 2 hr at 42° C. To each well was added 25 μl of scintillator (MicroScint0; Perkin Elmer Inc.), and the fluorescence amount was measured using a microplate scintillation counter (TopCount NXT™; Perkin Elmer Inc.). The glucagon binding inhibitory activity (IC50 value) of the well added with the test compound (containing 0.4% DMSO) was calculated, using the reaction rate of the well added only with 0.4% DMSO as 0% inhibitory rate, and the reaction rate of the well added with non-labeled glucagon (final concentration 1 μM) as 100% inhibitory rate.

[2] = system: glucagon-induced blood glucose increase; assay: Test of glucagon-induced blood glucose increase-suppressive action in mouse; assay type: in vivo; details: male ICR mouse, fasted; test compound 10 mg/kg orally 60 min before s.c. glucagon 10 μg/kg with octreotide; blood glucose 30 min after glucagon
Procedure: Test of Glucagon-Induced Blood Glucose Increase-Suppressive Action in Mouse
Full feeding ICR mouse (male, 7-week-old) was fasted, and 0.5% methylcellulose suspension (compound-administration group, 8 mice per group) containing a test compound (10 mg/kg body weight) or 0.5% methylcellulose suspension (compound-non-administration group, 8 mice per group) was orally administered. After 60 minutes, glucagon (10 μg/kg body weight, Novo Nordisk Pharma Ltd.) containing octreotide (100 μg/kg body weight, Novo Nordisk Pharma Ltd.) was subcutaneously administered. After 30 minutes from the glucagon administration, blood samples were collected from the tail vein of the mouse, and the blood glucose level was measured by a glucose self-test kit ACCU-CHEK (Roche Diagnostics K.K.). As a non-treatment group (8 mice per group), the blood glucose level of mouse of the compound-non-administration group, which was free of glucagon administration, was measured in the same manner as in the above.
The differences between the average blood glucose level of the compound-non-administration group, the average blood glucose level of the compound administration group, and the average blood glucose level of the non-treatment group were each calculated, and the percentage of the “difference between the blood glucose level of the compound administration group and that of the non-treatment group” relative to the “difference between the blood glucose level of the compound-non-administration group and that of the non-treatment group” as 100% was determined as an “increasing rate of blood glucose (% of control)”.

Chain of human-type glucagon receptor (P47871 26-477): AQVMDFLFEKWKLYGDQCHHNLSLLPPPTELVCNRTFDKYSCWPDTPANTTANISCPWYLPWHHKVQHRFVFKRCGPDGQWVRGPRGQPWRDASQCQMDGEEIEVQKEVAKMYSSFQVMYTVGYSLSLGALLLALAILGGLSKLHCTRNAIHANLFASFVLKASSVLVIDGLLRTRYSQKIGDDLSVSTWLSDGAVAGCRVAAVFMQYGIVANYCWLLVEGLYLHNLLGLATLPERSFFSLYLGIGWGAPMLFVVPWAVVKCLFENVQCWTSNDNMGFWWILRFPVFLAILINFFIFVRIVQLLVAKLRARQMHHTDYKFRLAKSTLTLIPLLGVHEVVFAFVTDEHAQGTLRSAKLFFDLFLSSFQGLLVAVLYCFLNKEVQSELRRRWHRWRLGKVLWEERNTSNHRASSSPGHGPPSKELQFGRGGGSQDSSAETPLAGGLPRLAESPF

| IC50 [1] | SMILES | increasing rate of blood glucose (% of control) [2] |
| --- | --- | --- |
| 180 nM | COc1ccc(-c2cc(C(Nc3ccc(C(=O)N(C)CCC(=O)O)cc3)C3CCCCC3)c(C)o2)cn1 (single isomer, unassigned) [Ex. 166, 3-[{[4-({cyclohexyl[5-(6-methoxypyridin-3-yl)-2-methylfuran-3-yl]methyl}amino)phenyl]carbonyl}(methyl)amino]propanoic acid] | – |
| 97 nM | CCc1sc(C2CCCCC2)cc1C(Nc1ccc(C(=O)NCCC(=O)O)cc1)C1CCCCC1 (centres unmarked) [Ex. 79, 3-{[(4-{[cyclohexyl(5-cyclohexyl-2-ethylthiophen-3-yl)methyl]amino}phenyl)carbonyl]amino}propanoic acid] | – |
| 190 nM | CCc1sc(CC(C)C)cc1C(Nc1ccc(C(=O)NCCC(=O)O)cc1)C1CCCCC1 (centres unmarked) [Ex. 83, 3-({[4-({cyclohexyl[2-ethyl-5-(2-methylpropyl)thiophen-3-yl]methyl}amino)phenyl]carbonyl}amino)propanoic acid] | – |
| – | COc1ccc(-c2cc(C(CC(C)C)Nc3ccc(C(=O)N(C)CCC(=O)O)cc3)c(C)o2)cn1 (centres unmarked) [Example 149, 3-[{[4-({1-[5-(6-methoxypyridin-3-yl)-2-methylfuran-3-yl]-3-methylbutyl}amino)phenyl]carbonyl}(methyl)amino]propanoic acid] | 6.8 % of control |
| 650 nM | Cc1sc(-c2ccccc2)cc1C(Nc1ccc(C(=O)N(C)CCC(=O)O)nc1)C1CCCCC1 (centres unmarked) [Ex. 311, 3-{[(5-{[cyclohexyl(2-methyl-5-phenylthiophen-3-yl)methyl]amino}pyridin-2-yl)carbonyl](methyl)amino}propanoic acid] | – |
| 250 nM | CCc1oc(-c2ccc(C(F)(F)F)cc2)cc1C(Nc1ccc(C(=O)N(C)CCC(=O)O)cc1)C1CCCCC1 (centres unmarked) [Ex. 10, 3-[{4-[(cyclohexyl{2-ethyl-5-[4-(trifluoromethyl)phenyl]-3-furyl}methyl)amino]benzoyl}(methyl)amino]propanoic acid] | – |
| – | CCc1oc(-c2ccc(C(F)(F)F)cc2)cc1C(Nc1ccc(C(=O)N(C)CCC(=O)O)cc1)C1CCCCC1 (centres unmarked) [Ex. 87, 3-[({4-[(cyclohexyl{2-ethyl-5-[4-(trifluoromethyl)phenyl]furan-3-yl}methyl)amino]phenyl}carbonyl)(methyl)amino]propanoic acid] | 6.5 % of control |
| 400 nM | Cc1oc(-c2ccc(F)cc2)cc1C(Nc1ccc(C(=O)N(C)CCC(=O)O)nc1)C1CCCCC1 (centres unmarked) [Ex. 318, 3-[{[5-({cyclohexyl[5-(4-fluorophenyl)-2-methylfuran-3-yl]methyl}amino)pyridin-2-yl]carbonyl}(methyl)amino]propanoic acid] | – |
| 110 nM | Cc1oc(-c2ccc(OC(F)(F)F)cc2)cc1C(Nc1ccc(C(=O)NCCC(=O)O)cc1)C1CCCCC1 (centres unmarked) [Ex. 53, 3-({4-[(cyclohexyl{2-methyl-5-[4-(trifluoromethoxy)phenyl]-3-furyl}methyl)amino]benzoyl}amino)propanoic acid] | – |
| 290 nM | COCc1oc(-c2ccc(F)cc2)cc1C(Nc1ccc(C(=O)N(C)CCC(=O)O)cc1)C1CCCCC1 (centres unmarked) [Ex. 314, 3-[{[4-({cyclohexyl[5-(4-fluorophenyl)-2-(methoxymethyl)furan-3-yl]methyl}amino)phenyl]carbonyl}(methyl)amino]propanoic acid] | – |
| 230 nM | COc1ccc(-c2cc(C(CC(C)C)Nc3ccc(C(=O)N(C)CCC(=O)O)cc3)c(C)o2)cn1 (single isomer, unassigned) [Ex. 319, 3-[{[4-({1-[5-(6-methoxypyridin-3-yl)-2-methylfuran-3-yl]-3-methylbutyl}amino)phenyl]carbonyl}(methyl)amino]propanoic acid] | – |
| 57 nM | CCc1sc(-c2ccc(C(F)(F)F)cc2)cc1C(Nc1ccc(C(=O)NCCC(=O)O)cc1)C1CCCCC1 (centres unmarked) [Ex. 71, 3-[({4-[(cyclohexyl{2-ethyl-5-[4-(trifluoromethyl)phenyl]thiophen-3-yl}methyl)amino]phenyl}carbonyl)amino]propanoic acid] | – |
| – | COCc1oc(-c2ccc(OC)nc2)cc1C(Nc1ccc(C(=O)N(C)CCC(=O)O)cc1)C1CCCCC1 (centres unmarked) [Example 147, 3-[{[4-({cyclohexyl[2-(methoxymethyl)-5-(6-methoxypyridin-3-yl)furan-3-yl]methyl}amino)phenyl]carbonyl}(methyl)amino]propanoic acid] | 8.6 % of control |

| SMILES | IC50 [1] | increasing rate of blood glucose (% of control) [2] |
| --- | --- | --- |
| CCc1oc(-c2ccc(C(F)(F)F)cc2)cc1C(CC(C)C)Oc1ccc(C(=O)NCCC(=O)O)cc1 (centres unmarked) [Ex. 5, 3-{[4-(1-{2-ethyl-5-[4-(trifluoromethyl)phenyl]-3-furyl}-3-methylbutoxy)benzoyl]amino}propanoic acid] | 630 nM | – |
